Results on 1 compound are retold here after publication PMC11645267, “Novel pharmacologic inhibition of lysine-specific demethylase 1 as a potential therapeutic for glioblastoma” (Cancer Gene Therapy, 2024).

Assay [1] deals with T1, MAO-A (Homo sapiens, UniProt P21397).
T1 sequence (P21397 1-527): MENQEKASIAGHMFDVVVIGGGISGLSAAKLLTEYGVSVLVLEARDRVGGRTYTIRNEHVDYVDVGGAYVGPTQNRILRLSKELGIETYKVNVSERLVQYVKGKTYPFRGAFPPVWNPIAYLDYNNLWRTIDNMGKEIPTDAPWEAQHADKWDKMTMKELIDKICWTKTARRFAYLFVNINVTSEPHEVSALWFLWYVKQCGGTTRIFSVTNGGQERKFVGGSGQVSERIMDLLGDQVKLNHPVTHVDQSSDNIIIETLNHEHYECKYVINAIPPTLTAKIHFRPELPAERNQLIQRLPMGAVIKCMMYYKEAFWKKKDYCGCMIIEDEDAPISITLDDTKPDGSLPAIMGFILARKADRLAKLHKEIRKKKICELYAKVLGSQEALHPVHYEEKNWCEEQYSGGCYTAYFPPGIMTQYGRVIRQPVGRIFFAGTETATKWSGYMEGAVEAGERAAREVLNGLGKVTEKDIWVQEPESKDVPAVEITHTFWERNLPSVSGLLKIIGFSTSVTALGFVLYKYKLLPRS
The experiment in a line: Enzyme inhibition assay (in vitro peroxidase assay) against MAO-A.
Protocol: Enzyme inhibition assays against LSD1, LSD2, MAO-A, and MAO-B were performed as previously described [25]. Technical replicates, n = 3.

For assay [2], the system named is KINGS1 and F3 cells. The experiment in a line: PARP cleavage (apoptosis) by western blot. The assay is classed as cell-based. Conditions: KINGS1 and F3, 5 μM. The text has this:
Super-enhancers consist of enhancer clusters with abundant binding of transcription factors and are highly enriched with H3K27ac marks. The H3K4me2 increased regions included the MYC locus and H3K4me2 de novo regions comprised Nestin and SOX2 loci (Fig. 2F, Supplementary Fig. S5A). These regions were also identified as super-enhancers in GSCs using data from our previous study (Fig. 2F). Compared to the large increase in H3K4me2 in these regions, changes in H3K4me3 were subtle after S2172 treatment (only 2582 regions were acquired modification) (Fig. 2C). Increasing the me2/me3 ratio at H3K4 is associated with reduced gene expression.
Supplementary Figure. S3 Shinjo K. et al […]
B. Western blot analysis of LSD1,MYC, Nestin, SOX2,and ACTB in same cells as shown in panel A. ACTB was used as a loading control. […] Quantification of signal intensities of the Western blot (right panel). […] Right panel: Quantification of band signal intensities from the Western blot. […] The ratio was calculated by dividing the cleaved PARP band intensity by the full-length PARP band intensity. […]
A. Left panel: Western blot analysis of H3K4me1, H3K4me2, H3K4me3, and H3K9me2 after treatment with either DMSO or S2172 5μM for 96 h in normal neural stem cell F3 . […] Right panel: Quantification of signal intensities of the Western blot. […]
C. […] Right panel: Quantification of band signal intensities from the Western blot. […]
(In general: Immunoblotting shows a protein as a band on a membrane.)

As for `NC1CCC(NC2CC2c2cc(F)cc(F)c2OCc2ccccc2)CC1` (stereo not drawn) [S2172], the Ki (in general, the equilibrium dissociation constant of an inhibitor or competing ligand from its target) in assay [1] is greater than 250 µM. In addition, in assay [1] (in vitro peroxidase assay), the “Inhibition of MAO-A (in words)” value was “not inhibited”. Also, the cleaved-PARP levels entry in assay [2] was “not significantly increased”.
